Key:
Assay type in all cases: cell-based, human
[1] = tested on: CD24 cell surface expression in OVCAR8 cells; assay: CD24 flow cytometry analysis in OVCAR8 cells; settings: OVCAR8; 3 days; bestatin 10 or 20 μM, tosedostat 5 or 10 μM, ARM1 1 or 2 μM; vs DMSO
Description: (§1) Flow Cytometry Analysis: For cell surface protein staining, 1×10^5-1×10^6 cells were first incubated with Fc receptor blocking solution, Human TruStain FcXTM (BioLegend, Cat #422301) for 10 minutes at room temperature. Cells were washed once in FACS buffer (1×PBS, 1.0% bovine serum albumin (BSA) (Sigma) and 0.2% sodium azide (Sigma), and then incubated with antibodies (given below) for 30 minutes at 4° C. in the dark. Cells were also stained with 7-AAD (Biolegend, Cat #420404) for dead cell exclusion, and flow cytometry analysis was performed using a Bio-Rad ZE5 Cell Analyzer. Following antibodies used in this study (all antibodies were used at 1:50 dilution unless otherwise noted): APC anti-human CD24 (BioLegend, Cat #311118, clone ML5), PE anti-human CD24 (eBioscience, Cat #12-0247-42, clone SN3), APC anti-human CD47 (BioLegend, Cat #323124, clone CC2C6), APC anti-human § 2-microglobulin (BioLegend, Cat #395711, clone […]), PE anti-human HLA-A2 (MHC-class I) (BioLegend, Cat #343305, clone BB7.2), APC anti-human CD11b (BioLegend, Cat #982604, clone ICRF44), APC anti-mouse F4/80 antibody (BioLegend, Cat #123116, clone BM8), APC-streptavidin (Thermo Fisher Scientific, Cat #SA1005, 1:100 dilution), PE anti-Calreticulin (Invitrogen, Catalog #MA5-15382, 1:200 dilution). For intracellular staining, cells were fixed with 1% paraformaldehyde for 5 min and permeabilized using the True-Nuclear Transcription Factor Buffer Set (BioLegend, Cat #424401) before the addition of the antibody. Small Molecule Inhibitor and Drug Treatments: OVCAR8 or SKOV3 cells were treated for 3 days with bestatin (Ubenimex) (SelleckChem, Cat #S1591) at 5, 10 or 20 μM (as indicated in the figure legends), Tosedostat (Medchem Express, Cat #HY-14807) at 5 μM or 10 μM (as indicated in the figure legends) or ARM-1 (Medchem Express, Cat #HY-W027340) at 1, or 2 μM (as indicated in the figure legends). Inhibitors were replenished every 24 hours. DMSO (Sigma Aldrich, Cat #D8418) was used as a vehicle. OVCAR8 cells were treated with Docetaxel (SelleckChem, Cat #S1148) at 100 nM or Carboplatin (SelleckChem, Cat #S1215 at 100 nM or Doxorubicin (SelleckChem, Cat #E2516) at 50 nM for 12 hours.

[2] = tested on: OVCAR8 cells; assay: In vitro phagocytosis assay of OVCAR8 cells by PBMC-derived M2 macrophages; settings: OVCAR8; bestatin 20 μM, tosedostat 20 μM, ARM1 2 μM; vs DMSO
Excerpt: Macrophage Generation and Stimulation: Primary human donor-derived macrophages were generated as described previously (Martinez, Curr Protocol Immunol 2012, Chapter 14:14.28.1-14.28.23). In brief, Leukopaks from anonymous donors were obtained from the Rhode Island Blood (Providence, RI) and peripheral blood […] (PBMCs) were isolated by density gradients centrifugation using Ficoll Paque Plus (Sigma-Aldrich, Cat #17-1440-02) followed by RBC lysis using RBC lysis buffer (eBioscience, Cat #00-4333-57). For monocyte isolation, PBMCs were incubated in Monocyte Attachment Medium (Sigma-Aldrich, Cat #C-28051) for 1 hour at 37° C. and 5% CO2 and then washed three times in Iscove's Modified Dulbecco's Medium (IMDM) (Gibco, Cat #12440053) to remove non-adherent cells. The remaining monocytes were detached and seeded in 96-well plates and cultured at 37° C. and 5% CO2 in IMDM supplemented with 10% FBS (Atlanta Biologicals, Cat #S11550) and 20 ng/ml recombinant human M-CSF (Peprotech, Cat #AF-300-25). After 4 days monocytes were then treated with 20 ng/ml recombinant human IL-4 (Peprotech, Cat #200-04) and 10 ng/mL recombinant human IL-10 (PeproTech, Cat #200-10) for another 3-4 days to obtain M2 polarized macrophages. Macrophage differentiation was confirmed morphologically using microscopy. M2-macrophage polarization was confirmed by immunophenotyping of the M2 marker CD206 using PE-conjugated anti-human anti-CD206 antibody (BioLegend, Cat #321106, clone 15-2, 1:100 dilution). In vitro Phagocytosis Assays: To facilitate the quantification of phagocytic events, we adapted a microscopy-based fluorescence phagocytosis […] al., J Immunol Methods 2009, 342(1-2):71-7; Lindner et al., Biotechniques 2020, 68(5):245-250) for use with a Celigo imaging cytometer. […] Cells were incubated with pHrodo Red, SE (Invitrogen, Cat #P36600) on ice for 30 min and then co-cultured with PBMC-derived M2 macrophages (prepared as described above) at a ratio of 1:2 (OVCAR8/B cells: macrophages) for 2 hours in a humidified 5% CO2 incubator at 37° C. Phagocytic events were quantified by counting the number of red fluorescent (pHrodo+) cells per well using a Celigo Imaging Cytometer (Nexcelom). EmGFP was used for the visualization of cancer cells in imaging Phagocytic events were also quantified using a previously-described flow cytometry-based assay (Barkal et al., Nature 2019, 572(7769):392-396; […] et al., Biomedicines 2022, 10(5):1175). In brief, M2 macrophages co-cultured with OVCAR8/EmGFP-luc cells were detached using TrypLE Express (GibcoTM, cat #12604013), stained with APC anti-human CD11b clone ICRF44 (BioLegend, Cat #982604) and analyzed by flow cytometry (BioRad ZE5). Double-positive EmGFP+CD11b+ cells were considered phagocytic events.

[3] = tested on: CALR cell surface expression in OVCAR8 cells; assay: Flow cytometry analysis of Calreticulin (CALR) in OVCAR8 cells; settings: OVCAR8, 12 hours; docetaxel 100 nM, carboplatin 100 nM, doxorubicin 50 nM; vs DMSO (FIG. 11A)
Description: as §1, with “OVCAR8 cells were treated with Docetaxel (SelleckChem, Cat #S1148) at 100 nM or Carboplatin (SelleckChem, Cat #S1215 at 100 nM or Doxorubicin (SelleckChem, Cat #E2516) at 50 nM for 12 hours.” left out

SMILES	CD24 cell surface expression (MFI) [1]	macrophage-mediated phagocytosis [2]	CALR cell surface expression [3]
Nc1nc(-c2ccc(Cc3ccccc3)cc2)cs1 [ARM1]	decreased	increased	–
N.N.O=C([O-])C1(C(=O)[O-])CCC1.[Pt+2] [carboplatin]	–	–	did not
CC(=O)O[C@@]12CO[C@@H]1C[C@H](O)[C@@]1(C)C(=O)[C@H](O)C3=C(C)[C@@H](OC(=O)[C@H](O)[C@@H](NC(=O)OC(C)(C)C)c4ccccc4)C[C@@](O)([C@@H](OC(=O)c4ccccc4)[C@H]21)C3(C)C [docetaxel]	–	–	induced robust
COc1cccc2c1C(=O)c1c(O)c3c(c(O)c1C2=O)C[C@@](O)(C(=O)CO)C[C@@H]3O[C@H]1C[C@H](N)[C@H](O)[C@H](C)O1 [doxorubicin]	–	–	did not

Source: patent US20260209777A1, “TARGETING GLYCOSYLPHOSPHATIDYLINOSITOL (GPI) PATHWAY PROTEINS TO TREAT OVARIAN CANCER” (UNIVERSITY OF MASSACHUSETTS, priority 2023, published 2026)
